Assay results reported in the supplement of paper PMC11451515.

Tested on: NOMO1
Assay: cell viability relative to DMSO control; higher = less cytotoxic
Conditions: 48 h
Method in brief: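 NOMO1 or SEM (500 cells/well) or P12-Ichikawa (1000 cells/well) leukemia cells were adapted for at least four passages in each medium. They were seeded in 1536-well plates (5 μl) and pin-dosed with library compounds in DMSO over an 11-point threefold series, 47 μM to 0.79 nM. CellTiter-Glo One luminescence was read after 48 h at 37°C. Viability is the per-plate percentage relative to DMSO wells, with cell-free wells as background.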

[1] = HPLM + 10% dialyzed FBS, 0.000781 µM
[2] = HPLM + 10% dialyzed FBS, 0.00234 µM
[3] = HPLM + 10% dialyzed FBS, 0.00702 µM
[4] = HPLM + 10% dialyzed FBS, 0.0211 µM
[5] = HPLM + 10% dialyzed FBS, 0.0632 µM
[6] = HPLM + 10% dialyzed FBS, 0.19 µM
[7] = HPLM + 10% dialyzed FBS, 0.569 µM
[8] = HPLM + 10% dialyzed FBS, 1.71 µM
[9] = HPLM + 10% dialyzed FBS, 5.12 µM
[10] = HPLM + 10% dialyzed FBS, 15.4 µM
[11] = HPLM + 10% dialyzed FBS, 46.1 µM
[12] = RPMI 5 mM glucose + 10% dialyzed FBS, 0.000781 µM
[13] = RPMI 5 mM glucose + 10% dialyzed FBS, 0.00234 µM
[14] = RPMI 5 mM glucose + 10% dialyzed FBS, 0.00702 µM
[15] = RPMI 5 mM glucose + 10% dialyzed FBS, 0.0211 µM
[16] = RPMI 5 mM glucose + 10% dialyzed FBS, 0.0632 µM
[17] = RPMI 5 mM glucose + 10% dialyzed FBS, 0.19 µM
[18] = RPMI 5 mM glucose + 10% dialyzed FBS, 0.569 µM
[19] = RPMI 5 mM glucose + 10% dialyzed FBS, 1.71 µM
[20] = RPMI 5 mM glucose + 10% dialyzed FBS, 5.12 µM
[21] = RPMI 5 mM glucose + 10% dialyzed FBS, 15.4 µM
[22] = RPMI 5 mM glucose + 10% dialyzed FBS, 46.1 µM
[23] = RPMI 5 mM glucose + 10% FBS, 0.000781 µM
[24] = RPMI 5 mM glucose + 10% FBS, 0.00234 µM
[25] = RPMI 5 mM glucose + 10% FBS, 0.00702 µM
[26] = RPMI 5 mM glucose + 10% FBS, 0.0211 µM
[27] = RPMI 5 mM glucose + 10% FBS, 0.0632 µM
[28] = RPMI 5 mM glucose + 10% FBS, 0.19 µM
[29] = RPMI 5 mM glucose + 10% FBS, 0.569 µM
[30] = RPMI 5 mM glucose + 10% FBS, 1.71 µM
[31] = RPMI 5 mM glucose + 10% FBS, 5.12 µM
[32] = RPMI 5 mM glucose + 10% FBS, 15.4 µM
[33] = RPMI 5 mM glucose + 10% FBS, 46.1 µM

| Compound | cell viability [1] [%] | cell viability [2] [%] | cell viability [3] [%] | cell viability [4] [%] | cell viability [5] [%] | cell viability [6] [%] | cell viability [7] [%] | cell viability [8] [%] | cell viability [9] [%] | cell viability [10] [%] | cell viability [11] [%] | cell viability [12] [%] | cell viability [13] [%] | cell viability [14] [%] | cell viability [15] [%] | cell viability [16] [%] | cell viability [17] [%] | cell viability [18] [%] | cell viability [19] [%] | cell viability [20] [%] | cell viability [21] [%] | cell viability [22] [%] | cell viability [23] [%] | cell viability [24] [%] | cell viability [25] [%] | cell viability [26] [%] | cell viability [27] [%] | cell viability [28] [%] | cell viability [29] [%] | cell viability [30] [%] | cell viability [31] [%] | cell viability [32] [%] | cell viability [33] [%] |
| --- | --- | --- | --- | --- | --- | --- | --- | --- | --- | --- | --- | --- | --- | --- | --- | --- | --- | --- | --- | --- | --- | --- | --- | --- | --- | --- | --- | --- | --- | --- | --- | --- | --- |
| c1ccc2[nH]c(-c3cscn3)nc2c1 | 122 | 113 | 136 | 121 | 133 | 135 | 122 | 133 | 107 | 102 | 90.8 |  |  |  |  |  |  |  |  |  |  |  |  |  |  |  |  |  |  |  |  |  |  |
| CN[C@@H]1[C@@H](O)[C@@H](O[C@@H]2[C@@H](O)[C@H](O[C@H]3O[C@H](CN)[C@@H](O)[C@H](O)[C@H]3O)[C@@H](N)C[C@H]2NC(=O)[C@@H](O)CN)OC[C@]1(C)O | 120 | 132 | 115 | 135 | 148 | 130 | 140 | 110 | 113 | 103 | 120 | 130 | 115 | 110 | 127 | 112 | 132 | 116 | 107 | 99.9 | 117 | 98.6 |  |  |  |  |  |  |  |  |  |  |  |
| CC(C)(C#N)c1cc(Cn2cncn2)cc(C(C)(C)C#N)c1 |  |  |  |  |  |  |  |  |  |  |  |  |  |  |  |  |  |  |  |  |  |  | 123 | 106 | 102 | 111 | 109 | 106 | 127 | 114 | 44.2 | 106 | 107 |
| NNCCc1ccccc1 | 109 | 133 | 119 | 131 | 112 | 115 | 108 | 118 | 111 | 60 | 30.4 | 116 | 116 | 129 | 107 | 125 | 121 | 122 | 109 | 109 | 114 | 75 | 117 | 132 | 122 | 117 | 124 | 117 | 115 | 114 | 114 | 103 | 21.2 |
| CC[C@H](NC1=C2N=C[NH]C2=NC=N1)C/3=N/C4=C(C(=CC=C4)F)C(=O)N3C5=CC=CC=C5 |  |  |  |  |  |  |  |  |  |  |  | 125 | 121 | 123 | 125 | 133 | 110 | 117 | 114 | 100 | 82.2 | 57 | 116 | 119 | 139 | 122 | 125 | 116 | 113 | 113 | 111 | 107 | 76.9 |
| N[S+]([O-])(=O)C1=C(Cl)C=C2\N=C/N[S+]([O-])(=O)C2=C1 | 109 | 109 | 119 | 122 | 114 | 121 | 118 | 119 | 109 | 116 | 124 | 101 | 105 | 106 | 112 | 112 | 108 | 102 | 105 | 112 | 105 | 105 | 94.2 | 100 | 109 | 100 | 112 | 105 | 112 | 107 | 114 | 99.5 | 101 |
| Cc1c(C)n(Cc2ccc(-c3ccccc3C(=O)O)cc2)c2ccc(C(=O)N[C@@H](C)c3ccc([N+](=O)[O-])cc3)cc12 | 92.6 | 107 | 106 | 103 | 115 | 116 | 102 | 86.8 | 86 | 32.2 | 35.1 | 108 | 121 | 104 | 109 | 114 | 107 | 125 | 106 | 111 | 19.2 | 16.2 | 118 | 107 | 111 | 126 | 105 | 112 | 124 | 101 | 101 | 18.7 | 12.3 |
| CC1=C(C)C(=O)C(C(CCCCCC(=O)O)c2ccccc2)=C(C)C1=O (stereo not drawn) | 75.8 | 78.1 | 83.4 | 93.9 | 93.6 | 109 | 53.4 | 97.9 | 27.8 | 27.1 | 13.5 | 75.6 | 78.9 | 75 | 87.7 | 83.7 | 84.2 | 86.4 | 78 | 25.1 | 27.4 | 15 | 68 | 82.7 | 70.7 | 74.7 | 74.9 | 79.3 | 76.1 | 80.4 | 19.6 | 22.3 | 12.5 |
